The target in one assay is T1, CDK5-p25 kinase (Homo sapiens, UniProt Q00535).
T1 construct: purchased Invitrogen PV4677
T1 sequence (Q00535 whole entry): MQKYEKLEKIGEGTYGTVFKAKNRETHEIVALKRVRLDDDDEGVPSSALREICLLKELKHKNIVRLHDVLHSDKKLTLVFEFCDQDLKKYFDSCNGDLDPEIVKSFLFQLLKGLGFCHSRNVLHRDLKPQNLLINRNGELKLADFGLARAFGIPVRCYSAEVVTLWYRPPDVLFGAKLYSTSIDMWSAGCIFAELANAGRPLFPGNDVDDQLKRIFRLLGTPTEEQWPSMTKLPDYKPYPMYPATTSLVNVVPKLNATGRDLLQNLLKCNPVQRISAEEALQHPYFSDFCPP
T1 sequence (Q15078 99-307 partner limits assumed): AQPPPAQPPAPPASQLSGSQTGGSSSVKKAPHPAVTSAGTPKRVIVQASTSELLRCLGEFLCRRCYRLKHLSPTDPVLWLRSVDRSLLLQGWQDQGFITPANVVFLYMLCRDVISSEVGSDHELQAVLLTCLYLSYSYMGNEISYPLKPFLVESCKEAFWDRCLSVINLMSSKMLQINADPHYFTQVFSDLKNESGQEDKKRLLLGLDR
Briefly: CDK5-p25 kinase enzymatic assay. The format is biochemical. The conditions noted are these: 50 nM-99 nM; 5 uM ATP, 0.3 nM CDK5-p25; read-out: IC50 potency, CDK5-p25 kinase enzymatic assay, 50 nM-99 nM. As to the method: CDK5-p25 kinase (Invitrogen PV4677) enzymatic activity was measured using electrophoretic separation and fluorescent detection to monitor phosphorylation of a fluorescently labeled histone H1-derived peptide substrate, FL29 (5-FAM-GGGPATPKKAKKL-CONH2, Caliper #760429)
First, 0.25 uL of serially diluted compound in DMSO at 100× concentration was transferred into each well of a 384-well polystyrene assay plate. To this was added 15 uL of a 1.67× enzyme solution (500 pM enzyme, 1 mM DTT (Sigma D9779), 1× reconstitution buffer with protease inhibitor (Caliper #700329 proprietary formulation)), followed by centrifugation for 1 min at 1000 rpm, and incubation for 5-15 min at room temperature to allow binding of compound to enzyme. To initiate the reaction, 10 uL of substrate/ATP mix (245 mM Hepes pH 7.5, 0.003% Brij 35, 0.004% Tween, 12.75 uM ATP, 3.75 uM FL29 peptide) were added to each well, followed by centrifugation at 1000 rpm for 1 min. The reaction was then incubated at room temperature for 30 min. Final assay conditions were: 0.3 nM CDK5-p25, 1.5 uM peptide, 5 uM ATP, 0.6 mM DTT, 1% DMSO, 98 mM HEPES pH 7.5.
After incubation, reactions were quenched by the addition of 45 uL Caliper termination solution (Caliper proprietary formula), followed by centrifugation at 1000 rpm for 1 min. Extent of reaction (percentage conversion of substrate to phosphorylated product) was then measured using the Caliper EZ II reader. Dose-response curves were created by plotting the inhibition of enzyme activity (normalized relative to vehicle treated and no ATP control reactions) as a function of the log of compound concentration. The curve was analyzed using a four parameter logistical fit to calculate IC50 values.
In the case of `O=C(Nc1ncn2c(C(F)(F)F)csc12)C(O)c1ccc2ccccc2c1` (single isomer, unassigned) [Example 44, (R or S)-2-hydroxy-2-(2-naphthyl)-N-[3-(trifluoromethyl)imidazo[5,1-b][1,3]thiazol-7-yl]acetamide], the IC50 was in the range of 50 to 99 nM.

As to `O=C(Nc1ncn2c(C(F)(F)F)csc12)C(Cl)c1ccc2ccccc2c1` (single isomer, unassigned) [Example 45, (R or S)-2-chloro-2-(2-naphthyl)-N-[3-(trifluoromethyl)imidazo[5,1-b][1,3]thiazol-7-yl]acetamide], the IC50 was in the range of 50 to 99 nM. The same measure, in the same setting: as for `O=C(Cc1ccc(-c2ccncc2)cc1)Nc1ncn2c(C(F)(F)F)csc12` [Example 12, 2-(4-pyridin-4-ylphenyl)-N-[3-(trifluoromethyl)imidazo[5,1-b][1,3]thiazol-7-yl]acetamide], the figure is 50 to 99 nM; as for `O=C(Cc1ccc(N2CCCC2=O)cc1)Nc1ncn2c(C(F)(F)F)csc12` [Example 17, 2-[4-(2-oxopyrrolidin-1-yl)phenyl]-N-[3-(trifluoromethyl)imidazo[5,1-b][1,3]thiazol-7-yl]acetamide], 50 to 99 nM. Still for that read-out and setting: the value for `Cn1cc(-c2ccc(CC(=O)Nc3ncn4c(C(F)(F)F)csc34)cc2)cn1` [Example 20, 2-[4-(1-methyl-1H-pyrazol-4-yl)phenyl]-N-[3-(trifluoromethyl)imidazo[5,1-b][1,3]thiazol-7-yl]acetamide] was 50 to 99 nM; that for `O=C(Cc1ccc(-n2ccnc2)cc1)Nc1ncn2c(C(F)(F)F)csc12` [Example 23, 2-[4-(1H-imidazol-1-yl)phenyl]-N-[3-(trifluoromethyl)imidazo[5,1-b][1,3]thiazol-7-yl]acetamide] was 50 to 99 nM. The same measure, in the same setting: the value for `O=C(Cc1ccc(-c2ccnnc2)cc1)Nc1ncn2c(C(F)(F)F)csc12` [Example 26, 2-(4-pyridazin-4-ylphenyl)-N-[3-(trifluoromethyl)imidazo[5,1-b][1,3]thiazol-7-yl]acetamide] was 50 to 99 nM; that for `NCc1ccc(CC(=O)Nc2ncn3c(C(F)(F)F)csc23)cc1` [Example 27, 2-[4-(aminomethyl)phenyl]-N-[3-(trifluoromethyl)imidazo[5,1-b][1,3]thiazol-7-yl]acetamide] was 50 to 99 nM. Turning to `O=C(Cc1ccc2c(c1)OCO2)Nc1ncn2c(C(F)(F)F)csc12` [Example 30, 2-(1,3-benzodioxol-5-yl)-N-[3-(trifluoromethyl)imidazo[5,1-b][1,3]thiazol-7-yl]acetamide], the IC50 lay within 50 to 99 nM.

The same assay, now with this note: 500 nM-3 μM; 5 uM ATP, 0.3 nM CDK5-p25; read-out: IC50 potency, CDK5-p25 kinase enzymatic assay, 500 nM-3 μM.
For `O=C(Cc1cc2ccccc2cn1)Nc1ncn2c(C(F)(F)F)csc12` [Example 8, 2-isoquinolin-3-yl-N-[3-(trifluoromethyl)imidazo[5,1-b][1,3]thiazol-7-yl]acetamide], the IC50 fell in the range of 500 to 3000 nM. Regarding `NC(C(=O)Nc1ncn2c(C(F)(F)F)csc12)c1ccc2ccccc2c1` (centres unmarked) [Example 15, 2-amino-2-(2-naphthyl)-N-[3-(trifluoromethyl)imidazo[5,1-b][1,3]thiazol-7-yl]acetamide], the IC50 was in the range of 500 to 3000 nM. `COc1ccc2cc(C(C)C(=O)Nc3ncn4c(C(F)(F)F)csc34)ccc2c1` (centres unmarked) [Example 18, 2-(6-methoxy-2-naphthyl)-N-[3-(trifluoromethyl)imidazo[5,1-b][1,3]thiazol-7-yl]propanamide]: the IC50 is 500 to 3000 nM. Same read-out and setting: the value for `O=C(Cc1cn2cccnc2n1)Nc1ncn2c(C(F)(F)F)csc12` [Example 28, 2-imidazo[1,2-a]pyrimidin-2-yl-N-[3-(trifluoromethyl)imidazo[5,1-b][1,3]thiazol-7-yl]acetamide] was 500 to 3000 nM.

The assay is the same for the next values; noted with them: 5 uM ATP, 0.3 nM CDK5-p25; read-out: IC50 potency, CDK5-p25 kinase enzymatic assay, 100 nM-499 nM.
As for `COc1cccc(-c2ccc(CC(=O)Nc3ncn4c(C(F)(F)F)csc34)cc2)c1` [Example 10, 2-(3′-methoxybiphenyl-4-yl)-N-[3-(trifluoromethyl)imidazo[5,1-b][1,3]thiazol-7-yl]acetamide], the IC50 lay in the range of 100 to 499 nM. On the same count and under the same terms, as for `O=C(CC1CCOCC1)Nc1ncn2c(C(F)(F)F)csc12` [Example 21, 2-(tetrahydro-2H-pyran-4-yl)-N-[3-(trifluoromethyl)imidazo[5,1-b][1,3]thiazol-7-yl]acetamide], the figure is 100 to 499 nM; as for `Cc1cc(CC(=O)Nc2ncn3c(C(F)(F)F)csc23)on1` [Example 22, 2-(3-methylisoxazol-5-yl)-N-[3-(trifluoromethyl)imidazo[5,1-b][1,3]thiazol-7-yl]acetamide], 100 to 499 nM; as for `N[C@H]1CC[C@H](CC(=O)Nc2ncn3c(C(F)(F)F)csc23)CC1` [Example 25, 2-(trans-4-amino-cyclohexyl)-N-[3-(trifluoromethyl)imidazo[5,1-b][1,3]thiazol-7-yl]acetamide], 100 to 499 nM. On to `O=C(Cc1cn2ccccc2n1)Nc1ncn2c(C(F)(F)F)csc12` [Example 29, 2-imidazo[1,2-a]pyridin-2-yl-N-[3-(trifluoromethyl)imidazo[5,1-b][1,3]thiazol-7-yl]acetamide], for which the IC50 is 100 to 499 nM.

Staying with this assay, now noted: '<50 nM'; 5 uM ATP, 0.3 nM CDK5-p25; read-out: IC50 potency, CDK5-p25 kinase enzymatic assay, <50 nM.
Turning to `O=C(Cc1ccc(N2CCOC2=O)cc1)Nc1ncn2c(C(F)(F)F)csc12` [Example 1, 2-[4-(2-Oxo-1,3-oxazolidin-3-yl)phenyl]-N-[3-(trifluoromethyl)imidazo[5,1-b][1,3]thiazol-7-yl]acetamide], the IC50 was less than 50 nM.

For the compound `O=C(Cc1ccc2ccccc2c1)Nc1ncn2c(C(F)(F)F)csc12` [Example 2, 2-(2-naphthyl)-N-[3-(trifluoromethyl)imidazo[5,1-b][1,3]thiazol-7-yl]acetamide], the IC50 was less than 50 nM. With `O=C(Cc1ccc2ncccc2c1)Nc1ncn2c(C(F)(F)F)csc12` [Example 3, 2-quinolin-6-yl-N-[3-(trifluoromethyl)imidazo[5,1-b][1,3]thiazol-7-yl]acetamide], the IC50 was less than 50 nM.

Take `O=C(Cc1ccc2ccncc2c1)Nc1ncn2c(C(F)(F)F)csc12` [Example 4, 2-isoquinolin-7-yl-N-[3-(trifluoromethyl)imidazo[5,1-b][1,3]thiazol-7-yl]acetamide]: the IC50 was less than 50 nM.

For the compound `O=C(Cc1ccc2cnccc2c1)Nc1ncn2c(C(F)(F)F)csc12` [Example 5, 2-isoquinolin-6-yl-N-[3-(trifluoromethyl)imidazo[5,1-b][1,3]thiazol-7-yl]acetamide], the IC50 was less than 50 nM. Still for that read-out and setting: as for `COc1ccc2cc(CC(=O)Nc3ncn4c(C(F)(F)F)csc34)ccc2c1` [Example 6, 2-(6-methoxy-2-naphthyl)-N-[3-(trifluoromethyl)imidazo[5,1-b][1,3]thiazol-7-yl]acetamide], the figure is less than 50 nM. Still for that read-out and setting: the value for `O=C(Cc1ccc(Cl)nc1)Nc1ncn2c(C(F)(F)F)csc12` [Example 7, 2-(6-chloropyridin-3-yl)-N-[3-(trifluoromethyl)imidazo[5,1-b][1,3]thiazol-7-yl]acetamide] was less than 50 nM; that for `COc1ccc2ccc(CC(=O)Nc3ncn4c(C(F)(F)F)csc34)cc2c1` [Example 9, 2-(7-methoxy-2-naphthyl)-N-[3-(trifluoromethyl)imidazo[5,1-b][1,3]thiazol-7-yl]acetamide] was less than 50 nM. Same read-out and setting: as for `O=C(Cc1ccc(-c2cccnc2)cc1)Nc1ncn2c(C(F)(F)F)csc12` [Example 11, 2-(4-pyridin-3-ylphenyl)-N-[3-(trifluoromethyl)imidazo[5,1-b][1,3]thiazol-7-yl]acetamide], the figure is less than 50 nM; as for `O=C(Cc1ccc2cccnc2c1)Nc1ncn2c(C(F)(F)F)csc12` [Example 13, 2-quinolin-7-yl-N-(3-(trifluoromethyl)imidazo[5,1-b][1,3]thiazol-7-yl]acetamide], less than 50 nM; as for `COc1cccc2cc(CC(=O)Nc3ncn4c(C(F)(F)F)csc34)ccc12` [Example 14, 2-(5-methoxy-2-naphthyl)-N-[3-(trifluoromethyl)imidazo[5,1-b][1,3]thiazol-7-yl]acetamide], less than 50 nM. Turning to `O=C(Cc1ccc(-c2cn[nH]c2)cc1)Nc1ncn2c(C(F)(F)F)csc12` [Example 16, 2-[4-(1H-pyrazol-4-yl)phenyl]-N-(3-(trifluoromethyl)imidazo[5,1-b][1,3]thiazol-7-yl]acetamide], the IC50 is less than 50 nM. Take `O=C(Cc1ccc(-c2cc[nH]n2)cc1)Nc1ncn2c(C(F)(F)F)csc12` [Example 19, 2-[4-(1H-pyrazol-3-yl)phenyl]-N-[3-(trifluoromethyl)imidazo[5,1-b][1,3]thiazol-7-yl]acetamide]: the IC50 is less than 50 nM. Take `O=C(Cc1cccc(-c2cn[nH]c2)c1)Nc1ncn2c(C(F)(F)F)csc12` [Example 24, 2-[3-(1H-pyrazol-4-yl)phenyl]-N-[3-(trifluoromethyl)imidazo[5,1-b][1,3]thiazol-7-yl]acetamide]: the IC50 is less than 50 nM.

Broadly, the IC50 is the concentration that gives 50% inhibition.
